Values of other authors as cited in US10898467B2, “Veterinary formulations” (BOEHRINGER INGELHEIM ANIMAL HEALTH USA INC., priority 2015, dated 2021).

Details: beagle dogs, spot-on, 14C radiolabeled drug

## N#Cc1nn(-c2c(Cl)cc(C(F)(F)F)cc2Cl)c(N)c1[S+]([O-])C(F)(F)F (stereo not shown) [fipronil, 1-(2,6-Cl2-4-CF3phenyl)-3-CN-4-(SO—CF3)-5-NH2pyrazole]
  Time for which fipronil was persistently detected in the whole skin after treatment: up to 56 days
